# Patent US9944666B2, “Compounds that are S1P modulating agents and/or ATX modulating agents” (BIOGEN MA INC., priority 2012, dated 2018)
# Target: T1, Human ATX protein (Homo sapiens, UniProt Q13822)
# T1 construct: made in house
# Test: ATX biochemical FRET assay with FS-3 substrate
# Conditions: FS-3 2 μM, ATX 1.0 μg/mL, room temperature 2 hours, fluorescence 485/538 nm
# Description: ATX (Autotaxin) is a 125 KDa glycoprotein with lysophospholipase D (LPLD) activity that generates the bioactive lipid lysophosphatidic acid (LPA) from lysophosphatidylcholine (LPC). The ATX biochemical assay utilizes a FRET (fluorescence resonance energy transfer) technology platform. The fluorescence signal of FRET substrate FS-3 is quenched due to intra-molecular FRET of a fluorophore to a non-fluorescing quencher (Ferguson, C. G., et al., Org Lett. 2006 May 11; 8(10): 2023-2026, which is incorporated by reference in its entirety). ATX catalyzes the hydrolysis of the substrate which separates the dabsyl quencher from the fluorescein reporter, which becomes fluorescent. The reaction is monitored by a SpectraMax M5 (Molecular Devices, Sunnyvale, Calif.) with at excitation wavelength 485 nm and emission wavelength […].
# Fatty acid free-BSA (Sigma A8806): 10 mg/ml, in H2O, stored at 4° C.
# 2×ATX assay buffer: 100 mM Tris, 280 mM NaCl, 10 mM KCl, 2 mM CaCl2, 2 mM MgCl2, pH 7.4.
# Human ATX protein: expressed and purified in house. Stored at −80° C.
# Substrate FS-3 (Echelon, L-2000): 100 μg in 77.74 μL H2O (1 mM stock), stored at −20° C.
# 384-well flat bottom plates—Corning #3575.
# Compound dilution—All compounds were provided at 10 mM in 100% DMSO. In the first well, 2 μL of 10 mM compound was added to 78 μL of DMSO (1:40 dilution). In subsequent wells 3-fold dilution (total 10 dilutions) were performed.
# 1×ATX assay buffer was made up with a final concentration of 1 mg/mL fatty acid free-BSA using 2×ATX assay buffer, 10 mg/ml fatty acid free-BSA and ddH2O.
# ATX protein was diluted with 1×ATX assay buffer to a concentration of 1.32 μg/mL (1.32×). 38 μL was added per well to the assay plate. The final concentration of ATX in the reaction as 1.0 μg/mL.
# 2 μL per well of compounds was transferred to provide the desired concentration. The plate was centrifuged, then incubated at room temperature for 30 minutes on the shaker.
# FS-3 was diluted with 1×ATX assay buffer to a concentration of FS-3 of 10 μM (5×). Then, 10 μL was added per well to the assay plate. The final concentration of FS-3 in the reaction was 2 μM. The plate was centrifuged. The plate was kept shaking at room temperature for 2 hours. Because FS-3 substrate is light sensitive, plates were kept covered and protected from light.
# Fluorescence was measured using SpectraMax M5 (excitation at 485 nm/emission at 538 nm, top read).
row,Compound,IC50 [nM]
1,"CC(c1ccc2c(Cl)c(O[C@H]3CC[C@@H](C(F)(F)F)CC3)ccc2c1)N1C2CCC1CC(C(=O)O)C2 (stereo partly drawn) [Example 234, 8-(1-(5-chloro-6-((cis-4-(trifluoromethyl)cyclohexyl)oxy)naphthalen-2-yl)ethyl)-8-azabicyclo[3.2.1]octane-3-carboxylic acid]",≤ 100
2,"CCC(c1ccc2c(C(F)(F)F)c(O[C@H]3CC[C@@H](CC)CC3)ccc2c1)N1C2CCC1CC(C(=O)O)C2 (relative stereo) [Example 180, 8-(1-(6-((cis-4-ethylcyclohexyl)oxy)-5-(trifluoromethyl)naphthalen-2-yl)propyl)-8-azabicyclo[3.2.1]octane-3-carboxylic acid]",≤ 100
3,"O=C(O)C1CC2CC(C(=O)O)CC(C1)N2Cc1ccc2c(C(F)(F)F)c(O[C@H]3CC[C@@H](C(F)(F)F)CC3)ccc2c1 (stereo partly drawn) [Example 282, (1R,3S,5S)-9-((5-(trifluoromethyl)-6-((cis-4-(trifluoromethyl)cyclohexyl)oxy)naphthalen-2-yl)methyl)-9-azabicyclo[3.3.1]nonane-3,7-dicarboxylic acid]",≤ 100
4,"O=C(O)C1CCCC(C2CN(Cc3ccc4c(C(F)(F)F)c(O[C@H]5CC[C@@H](C(F)(F)F)CC5)ccc4c3)C2)C1 (relative stereo) [Example 159, N-(5-trifluoromethyl-6-(cis-4-trifluoromethyl-cyclohexyloxy)-naphthalen-2-ylmethyl)-3-(azetidine-3-yl)-cyclohexane-1-carboxylic acid]",≤ 500
5,"CC[C@H]1CC[C@@H](Oc2ccc3nc(NC4C5CCCC4CC(C(=O)O)C5)ccc3c2C(F)(F)F)CC1 (stereo partly drawn) [Example 198, 9-((6-((cis-4-ethylcyclohexyl)oxy)-5-(trifluoromethyl)quinolin-2-yl)amino)bicyclo[3.3.1]nonane-3-carboxylic acid]",≤ 100
6,"CC[C@H]1CC[C@@H](Oc2ccc3cc([C@@H](C)N4C5CCC4CC(C(=O)O)C5)ccc3c2C(F)(F)F)CC1 (single isomer, unassigned) [Example 289]",≤ 100
7,"C[C@H]1CC[C@@H](Oc2ccc3cc(C(=O)N4C5CCCC4CC(C(=O)O)C5)ccc3c2Cl)CC1 (stereo partly drawn) [Example 208, 9-(5-chloro-6-((cis-4-methylcyclohexyl)oxy)-2-naphthoyl)-9-azabicyclo[3.3.1]nonane-3-carboxylic acid]",≤ 250
8,"CCC(c1ccc2c(Cl)c(O[C@H]3CC[C@@H](CC)CC3)ccc2c1)N1C2CCC1CC(C(=O)O)C2 (stereo partly drawn) [Example 236, 8-(1-(5-chloro-6-((cis-4-ethylcyclohexyl)oxy)naphthalen-2-yl)propyl)-8-azabicyclo[3.2.1]octane-3-carboxylic acid]",≤ 100
9,"O=C(O)C12CC3CC(C1)N(Cc1ccc4c(C(F)(F)F)c(O[C@H]5CC[C@@H](C(F)(F)F)CC5)ccc4c1)C(C3)C2 [Example 283, 9-(1R,3S,5S,7S)-2-((5-(trifluoromethyl)-6-((cis-4-(trifluoromethyl)cyclohexyl)oxy)naphthalen-2-yl)methyl)-2-azaadamantane-5-carboxylic acid]",≤ 100
10,"CCC(c1ccc2c(C(F)(F)F)c(O[C@H]3CC[C@@H](C(F)(F)F)CC3)ccc2c1)N1C2CCC1CC(C(=O)O)C2 (relative stereo) [Example 178, 8-(1-(6-((cis-4-trifluoromethylcyclohexyl)oxy)-5-(trifluoromethyl)naphthalen-2-yl)propyl)-8-azabicyclo[3.2.1]octane-3-carboxylic acid]",≤ 100
11,"O=C(O)C1CC(NCc2ccc3c(C(F)(F)F)c(O[C@H]4CC[C@@H](C(F)(F)F)CC4)ccc3c2)C12CCCCC2 (stereo partly drawn) [Example 85, 3-(((5-(trifluoromethyl)-6-((cis-4-(trifluoromethyl)cyclohexyl)oxy)naphthalene-2-yl)methyl)amino)spiro[3.5]nonane-1-carboxylic acid]",≤ 500
12,"CC[C@H]1CC[C@@H](Oc2ccc3cc(C(=O)N4C5CCCC4CC(C(=O)O)C5)ccc3c2C#N)CC1 (stereo partly drawn) [Example 221, 9-(5-cyano-6-((cis-4-ethylcyclohexyl)oxy)-2-naphthoyl)-9-azabicyclo[3.3.1]nonane-3-carboxylic acid]",≤ 100
13,"CC[C@H]1CC[C@@H](Oc2ccc3cc(C(C)N4C5CCCC4CC(C(=O)O)C5)ccc3c2C(F)(F)F)CC1 (relative stereo) [Example 175, 9-(1-(6-((cis-4-ethylcyclohexyl)oxy)-5-(trifluoromethyl)naphthalen-2-yl)ethyl)-9-azabicyclo[3.3.1]nonane-3-carboxylic acid]",≤ 100
14,"O=C(O)C1CC2CCC(C1)N2C(=O)Cc1ccc2c(C(F)(F)F)c(O[C@H]3CC[C@@H](C(F)(F)F)CC3)ccc2c1 (relative stereo) [Example 117, 2-(2-(5-(trifluoromethyl)-6-((cis-4-(trifluoromethyl)cyclohexyl)oxy)naphthalene-2-yl)acetyl)-2-azabicyclo[1.2.3]octane-7-carboxylic acid]",≤ 500
15,"CC[C@H]1CC[C@@H](Oc2ccc3cc([C@@H](C)N4C5CCCC4CC(C(=O)O)C5)ccc3c2C(F)(F)F)CC1 (single isomer, unassigned) [Example 291]",≤ 100
16,"C[C@H]1CC[C@@H](Oc2ccc3cc(C(=O)N4C5CCC4CC(C(=O)O)C5)ccc3c2C(F)(F)F)CC1 (stereo partly drawn) [Example 104, 8-(6-((cis-4-Methylcyclohexyl)oxy)-5-(trifluoromethyl)-2-naphthoyl)-8-azabicyclo[3.2.1]octane-3-carboxylic acid]",≤ 100
17,"O=C(O)C1CC2CCC(C1)N2C(=O)c1ccc2c(Cl)c(O[C@H]3CC[C@@H](C(F)(F)F)CC3)ccc2c1 (stereo partly drawn) [Example 186, 8-(5-chloro-6-((cis-4-(trifluoromethyl)cyclohexyl)oxy)-2-naphthoyl)-8-azabicyclo[3.2.1]octane-3-carboxylic acid]",≤ 250
18,"CC(c1ccc2c(Cl)c(O[C@H]3CC[C@@H](C(F)(F)F)CC3)ccc2c1)N1C2CCCC1CC(C(=O)O)C2 (stereo partly drawn) [Example 235, 9-(1-(5-chloro-6-((cis-4-(trifluoromethyl)cyclohexyl)oxy)naphthalen-2-yl)ethyl)-9-azabicyclo[3.3.1]nonane-3-carboxylic acid]",≤ 100
19,"C[C@H]1CC[C@@H](Oc2ccc3cc(CN4C5CCC4CC(C(=O)O)C5)ccc3c2C#N)CC1 (stereo partly drawn) [Example 188, 8-((5-cyano-6-((cis-4-methylcyclohexyl)oxy)naphthalen-2-yl)methyl)-8-azabicyclo[3.2.1]octane-3-carboxylic acid]",≤ 500
20,"CC[C@H]1CC[C@@H](Oc2ccc3cc(C(=O)N4C5CCC4CC(C(=O)O)C5)ccc3c2Cl)CC1 (stereo partly drawn) [Example 215, 8-(5-chloro-6-((cis-4-ethylcyclohexyl)oxy)-2-naphthoyl)-8-azabicyclo[3.2.1]octane-3-carboxylic acid]",≤ 500
21,"O=C(O)C1CC2CCCC(C1)N2Cc1cc2ccc(O[C@H]3CC[C@@H](C(F)(F)F)CC3)c(Br)c2cn1 (stereo partly drawn) [Example 274, 9-((8-bromo-7-((cis-4-(trifluoromethyl)cyclohexyl)oxy)isoquinolin-3-yl)methyl)-9-azabicyclo[3.3.1]nonane-3-carboxylic acid]",≤ 250
22,"CC[C@H](c1ccc2c(C(F)(F)F)c(O[C@H]3CC[C@@H](C(F)(F)F)CC3)ccc2c1)N1C2CCCC1CC(C(=O)O)C2 (single isomer, unassigned) [Example 295]",≤ 250
23,"CC(c1ccc2c(C#N)c(O[C@H]3CC[C@@H](C(F)(F)F)CC3)ccc2c1)N1C2CCCC1CC(C(=O)O)C2 (stereo partly shown) [Example 228, 9-(1-(5-cyano-6-(((1s,4s)-4-(trifluoromethyl)cyclohexyl)oxy)naphthalen-2-yl)ethyl)-9-azabicyclo[3.3.1]nonane-3-carboxylic acid]",≤ 100
24,"O=C(O)C1CC2CCCC(C1)N2Cc1ccc2c(Cl)c(O[C@H]3CC[C@@H](C(F)(F)F)CC3)ccc2c1 (stereo partly drawn) [Example 111, 9-((5-Chloro-6-((cis-4-(trifluoromethyl)cyclohexyl)oxy)naphthalen-2-yl)methyl)-9-azabicyclo[3.3.1]nonane-3-carboxylic acid]",≤ 250
25,"CC[C@H]1CC[C@@H](Oc2ccc3cc(C(C)N4C5CCC4CC(C(=O)O)C5)ccc3c2C#N)CC1 (stereo partly drawn) [Example 212, 8-(1-(5-cyano-6-((cis-4-ethylcyclohexyl)oxy)naphthalen-2-yl)ethyl)-8-azabicyclo[3.2.1]octane-3-carboxylic acid]",≤ 100
